Reference: patent publication US8603527B2, “Pharmaceutical formulations of a substituted diaminopurine” (Signal Pharmaceuticals, LLC, priority 2010, dated 2013)
Read-outs that look alike come from different tables or passages of the source.

Assay: Pharmacokinetics (plasma and urine) of ascending multiple oral doses in healthy volunteers
Type: in vivo, human
Conditions: for Intra-subject CV % of AUC(0-τ) / Intra-subject CV % of Cmax: ANOVA, data from Days 10 and 14; for Vd/F / half-life / AUC(0-inf) / Cmax / concentration at 24 h / Tmax / AUC / CL renal / CL renal at 14 days: both sexes, human, oral; for Vd/F: read-out: Vz/F; for Cmax: read-out: Cmax; for concentration at 24 h: read-out: Ctrough; for AUC: τ = 24 hours (N = 8), read-out: AUC(0-τ); for CL renal / CL renal at 14 days: urine, read-out: CLR (renal clearance of drug)
From the text: Subjects: Forty healthy male and female subjects between the ages of 20 and 50 were enrolled in the study. All subjects were in good health as determined by a medical history, physical examination, 12-lead ECG, serum biochemistry, hematology, urinalysis and virology. Subjects were not permitted to take any prescribed medication within 30 days or non-prescribed medication within 7 days of the first dose administration.
Study Design: This study was a randomized, double-blind, placebo-controlled, ascending-dose trial to evaluate the safety, tolerability and pharmacokinetics (PK) of multiple oral doses of Compound I. Subjects were enrolled into 1 of the 4 cohorts, 10 subjects per cohort (active:placebo=8:2). Subjects received a multiple oral dose of 25, 50, 100, or 200 mg unformulated Compound I in a capsule, or matching placebo, once daily (QD) for 14 days.
Assessments: Safety and tolerability were assessed by adverse event (AE) monitoring, clinical laboratory testing, vital sign measurement, 12-lead ECG measurement, concomitant medication assessment, and physical examination. Blood and urine samples were collected to assess the PK profile of Compound I and the S-cis isomer of Compound I. Blood samples (˜5 mL) for plasma PK analysis were collected in K2-EDTA vacutainer tubes to yield approximately 2 mL of plasma at each of the following time points: (i) Day 1: before dosing, and 0.25, 0.5, 1, 1.5, 2, 2.5, 3, 4, 6, 8, 10, 12, 16, and 24 hours after dosing; (ii) Day 3 to Day 9: before dosing; (iii) Day 10: before dosing, and 0.25, 0.5, 1, 1.5, 2, 2.5, 3, 4, 6, 8, 10, 12, and 16 hours after dosing; (iv) Day 11 to Day 13: before dosing; (v) Day 14: before dosing, and 0.25, 0.5, 1, 1.5, 2, 2.5, 3, 4, 6, 8, 10, 12, 16, 24, 48, 72, 96, 120, 144, and 168 hours after dosing. Urine samples for the PK analysis were collected as a single block at: (i) Day 1: before dosing (spot collection), 0 to 8, 8 to 16, and 16 to 24 hours after dosing; and (ii) Day 14: 0 to 8, 8 to 16, and 16 to 24 hours after dosing. Both plasma and urine concentrations of Compound I and its S-cis isomer were measured using validated liquid chromatography-tandem mass spectrometry (LC/MS/MS).
Data Analysis: Safety data were summarized using descriptive statistics by treatment. PK parameters for Compound I and its S-cis isomer were calculated using non-compartmental analysis using WinNonlin (Version 5.0.1 or greater; Pharsight Corporation, Mountain View, Calif.). Dose proportionality and dose independence were evaluated by visual inspection. Intra-subject variability was assessed using an ANOVA model using data from Days 10 and 14.

[1] = 25 mg QD, Day 1, urine (n = 8), geometric mean
[2] = 25 mg QD, Day 14, plasma (N = 8), geometric mean
[3] = 25 mg QD, Day 14, urine (n = 8), geometric mean
[4] = 50 mg QD, Day 1, urine (n = 8), geometric mean
[5] = 50 mg QD, Day 14, plasma (N = 8), geometric mean
[6] = 50 mg QD, Day 14, urine (n = 8), geometric mean
[7] = 100 mg QD, Day 1, urine (n = 8), geometric mean
[8] = 100 mg QD, Day 14, plasma (N = 8), geometric mean
[9] = 100 mg QD, Day 14, urine (n = 8), geometric mean
[10] = 200 mg QD, Day 1, urine (n = 8), geometric mean
[11] = 200 mg QD, Day 14, plasma (N = 8), geometric mean
[12] = 200 mg QD, Day 14, urine (n = 8), geometric mean
[13] = plasma, 25 mg, 25 mg QD, Day 1, plasma, healthy subjects (N = 8), geometric mean
[14] = plasma, 25 mg, 25 mg QD, Day 14, plasma, healthy subjects (N = 8), geometric mean
[15] = plasma, 50 mg, 50 mg QD, Day 1, plasma, healthy subjects (N = 8), geometric mean
[16] = plasma, 50 mg, 50 mg QD, Day 14, plasma, healthy subjects (N = 8), geometric mean
[17] = plasma, 100 mg, 100 mg QD, Day 1, plasma, healthy subjects (N = 8), geometric mean
[18] = plasma, 100 mg, 100 mg QD, Day 14, plasma, healthy subjects (N = 8), geometric mean
[19] = plasma, 200 mg, 200 mg QD, Day 1, plasma, healthy subjects (N = 8), geometric mean
[20] = plasma, 200 mg, 200 mg QD, Day 14, plasma, healthy subjects (N = 8), geometric mean

## O[C@H]1CC[C@H](Nc2ncc3nc(Nc4c(F)cc(F)cc4F)n([C@H]4CCOC4)c3n2)CC1 [Compound I, 4-((9-((3S)-tetrahydro-3-furanyl)-8-((2,4,6-trifluorophenyl)amino)-9H-purin-2-yl)amino)-trans-cyclohexanol]
[1]
  Ae (amount of drug excreted in urine): 1.3 mg
  fe (percentage of dose excreted in urine): 5.2%
[2]
  CL/F: 95 mL/min
  RA (ratio of accumulation): 1.9
  Vd/F: 256 L
[3]
  Ae (amount of drug excreted in urine): 3.5 mg
  fe (percentage of dose excreted in urine): 14.0%
25 mg QD
  Intra-subject CV % of AUC(0-τ): 7.0%
  Intra-subject CV % of Cmax: 10.2%
[4]
  Ae (amount of drug excreted in urine): 3.0 mg
  fe (percentage of dose excreted in urine): 5.9%
[5]
  CL/F: 85 mL/min
  RA (ratio of accumulation): 2.2
  Vd/F: 193 L
[6]
  Ae (amount of drug excreted in urine): 6.9 mg
  fe (percentage of dose excreted in urine): 13.9%
50 mg QD
  Intra-subject CV % of AUC(0-τ): 8.4%
  Intra-subject CV % of Cmax: 5.7%
[7]
  Ae (amount of drug excreted in urine): 5.3 mg
  fe (percentage of dose excreted in urine): 5.3%
[8]
  CL/F: 130 mL/min
  RA (ratio of accumulation): 1.8
  Vd/F: 338 L
[9]
  Ae (amount of drug excreted in urine): 11.9 mg
  fe (percentage of dose excreted in urine): 11.9%
100 mg QD
  Intra-subject CV % of AUC(0-τ): 15.7%
  Intra-subject CV % of Cmax: 23.7%
[10]
  Ae (amount of drug excreted in urine): 5.0 mg
  fe (percentage of dose excreted in urine): 2.5%
[11]
  CL/F: 146 mL/min
  RA (ratio of accumulation): 1.5
  Vd/F: 328 L
[12]
  Ae (amount of drug excreted in urine): 11.7 mg
  fe (percentage of dose excreted in urine): 5.8%
200 mg QD
  Intra-subject CV % of AUC(0-τ): 14.0%
  Intra-subject CV % of Cmax: 18.3%
Day 10 and Day 14, QD dosing
  accumulation at steady state: approximately 2 fold
Days 10 and 14
  intra-subject variability of AUCss,(0-τ): less than 20%
QD dosing
  steady state reached (trough plasma concentrations): 6 days
25 mg QD, Day 14, plasma (N = 8), geometric mean, read-out: t1/2 (converted)
  half-life: 31 h
50 mg QD, Day 14, plasma (N = 8), geometric mean, read-out: t1/2 (converted)
  half-life: 26 h
100 mg QD, Day 14, plasma (N = 8), geometric mean, read-out: t1/2 (converted)
  half-life: 30 h
200 mg QD, Day 14, plasma (N = 8), geometric mean, read-out: t1/2 (converted)
  half-life: 26 h
plasma, 25 mg, 25 mg QD, Day 1, plasma (N = 8), geometric mean
  AUC(0-inf): 4260 ng·h/mL
[13]
  Cmax: 212 ng/mL
  concentration at 24 h: 55 ng/mL
plasma, 25 mg, 25 mg QD, Day 1, plasma, healthy subjects (N = 8), median, read-out: tmax
  Tmax: 2.3 h
plasma, 25 mg, 25 mg QD, Day 1, plasma, geometric mean
  AUC: 2270 ng·h/mL
plasma, 25 mg, 25 mg QD, Day 14, plasma (N = 8), geometric mean
  AUC(0-inf): 10200 ng·h/mL
[14]
  Cmax: 328 ng/mL
  concentration at 24 h: 130 ng/mL
plasma, 25 mg, 25 mg QD, Day 14, plasma, healthy subjects (N = 8), median, read-out: tmax
  Tmax: 2 h
plasma, 25 mg, 25 mg QD, Day 14, plasma, geometric mean
  AUC: 4400 ng·h/mL
plasma, 50 mg, 50 mg QD, Day 1, plasma (N = 8), geometric mean
  AUC(0-inf): 7750 ng·h/mL
[15]
  Cmax: 406 ng/mL
  concentration at 24 h: 125 ng/mL
plasma, 50 mg, 50 mg QD, Day 1, plasma, healthy subjects (N = 8), median, read-out: tmax
  Tmax: 2.3 h
plasma, 50 mg, 50 mg QD, Day 1, plasma, geometric mean
  AUC: 4560 ng·h/mL
plasma, 50 mg, 50 mg QD, Day 14, plasma (N = 8), geometric mean
  AUC(0-inf): 21300 ng·h/mL
[16]
  Cmax: 740 ng/mL
  concentration at 24 h: 282 ng/mL
plasma, 50 mg, 50 mg QD, Day 14, plasma, healthy subjects (N = 8), median, read-out: tmax
  Tmax: 2 h
plasma, 50 mg, 50 mg QD, Day 14, plasma, geometric mean
  AUC: 9810 ng·h/mL
plasma, 100 mg, 100 mg QD, Day 1, plasma (N = 8), geometric mean
  AUC(0-inf): 12200 ng·h/mL
[17]
  Cmax: 637 ng/mL
  concentration at 24 h: 183 ng/mL
plasma, 100 mg, 100 mg QD, Day 1, plasma, healthy subjects (N = 8), median, read-out: tmax
  Tmax: 2 h
plasma, 100 mg, 100 mg QD, Day 1, plasma, geometric mean
  AUC: 7300 ng·h/mL
plasma, 100 mg, 100 mg QD, Day 14, plasma (N = 8), geometric mean
  AUC(0-inf): 31600 ng·h/mL
[18]
  Cmax: 880 ng/mL
  concentration at 24 h: 400 ng/mL
plasma, 100 mg, 100 mg QD, Day 14, plasma, healthy subjects (N = 8), median, read-out: tmax
  Tmax: 1.8 h
plasma, 100 mg, 100 mg QD, Day 14, plasma, geometric mean
  AUC: 12800 ng·h/mL
plasma, 200 mg, 200 mg QD, Day 1, plasma (N = 8), geometric mean
  AUC(0-inf): 27000 ng·h/mL
[19]
  Cmax: 1440 ng/mL
  concentration at 24 h: 375 ng/mL
plasma, 200 mg, 200 mg QD, Day 1, plasma, healthy subjects (N = 8), median, read-out: tmax
  Tmax: 1.8 h
plasma, 200 mg, 200 mg QD, Day 1, plasma, geometric mean
  AUC: 15100 ng·h/mL
plasma, 200 mg, 200 mg QD, Day 14, plasma (N = 8), geometric mean
  AUC(0-inf): 48400 ng·h/mL
[20]
  Cmax: 1740 ng/mL
  concentration at 24 h: 643 ng/mL
plasma, 200 mg, 200 mg QD, Day 14, plasma, healthy subjects (N = 8), median, read-out: tmax
  Tmax: 1.8 h
plasma, 200 mg, 200 mg QD, Day 14, plasma, geometric mean
  AUC: 22800 ng·h/mL
plasma, 25-200 mg QD for 14 days, read-out: mean terminal half-life (t1/2)
  half-life: 25 to 31 h
plasma, 25-200 mg QD for 14 days, read-out: median tmax
  Tmax: 1 to 2 h
25 mg, 25 mg QD, Day 1, urine (n = 8), geometric mean
  CL renal: 9.5 mL/min
25 mg, 25 mg QD, Day 14, urine (n = 8), geometric mean
  CL renal at 14 days: 13.3 mL/min
50 mg, 50 mg QD, Day 1, urine (n = 8), geometric mean
  CL renal: 10.9 mL/min
50 mg, 50 mg QD, Day 14, urine (n = 8), geometric mean
  CL renal: 11.8 mL/min
100 mg, 100 mg QD, Day 1, urine (n = 8), geometric mean
  CL renal: 12 mL/min
100 mg, 100 mg QD, Day 14, urine (n = 8), geometric mean
  CL renal: 15.4 mL/min
200 mg, 200 mg QD, Day 1, urine (n = 8), geometric mean
  CL renal: 5.5 mL/min
200 mg, 200 mg QD, Day 14, urine (n = 8), geometric mean
  CL renal at 14 days: 8.5 mL/min
